Each structure is given as a SMILES string. Some results are limits rather than exact numbers.

The term melting point denotes the temperature, or range, at which the solid turns liquid. In the case of `CC(C)n1nc(-c2sc(N)nc2-c2cccc(Cl)c2)ccc1=O` [Example 81, 6-[2-Amino-4-(3-chlorophenyl)-1,3-thiazol-5-yl]-2-isopropyl-3(2H)-pyridazinone], the melting point is 235.5 to 237 °C. To `CC(C)n1nc(-c2sc(C(=O)N(C)C)nc2-c2ccccc2)ccc1=O` [Example 213, 5-(1-isopropyl-6-oxo-1,6-dihydro-3-pyridazinyl)-N,N-dimethyl-4-phenyl-1,3-thiazole-2-carboxamide] belongs 141 to 144 °C. Take `CC(C)n1nc(-c2sc(NC(=O)C(C)(C)C)nc2-c2ccccc2)ccc1=O` [Example 5, N-[5-(1-Isopropyl-6-oxo-1,6-dihydro-3-pyridazinyl)-4-phenyl-1,3-thiazol-2-yl]-2,2-dimethylpropanamide]: the melting point was 224 to 226 °C. The value for `CC(C)n1nc(-c2sc(NC(=O)COc3ccccc3)nc2-c2ccccc2)ccc1=O` [Example 8, N-[5-(1-Isopropyl-6-oxo-1,6-dihydro-3-pyridazinyl)-4-phenyl-1,3-thiazol-2-yl]-2-phenoxyacetamide] was 243 to 244 °C; that for `CC(C)n1nc(-c2sc(Nc3cccnc3)nc2-c2ccccc2)ccc1=O` [Example 16, 2-Isopropyl-6-[4-phenyl-2-(3-pyridinylamino)-1,3-thiazol-5-yl]-3(2H)-pyridazinone] was 226 to 228 °C; that for `CC(C)n1nc(-c2sc(C(=O)N3CCN(Cc4ccccc4)CC3)nc2-c2ccccc2)ccc1=O` [Example 229, 6-{2-[(4-Benzyl-1-piperazinyl)carbonyl]-4-phenyl-1,3-thiazol-5-yl}-2-isopropyl-3(2H)-pyridazinone] was 181 to 182 °C.

Consider `CC(=O)Cn1nc(-c2sc(N)nc2-c2ccccc2)ccc1=O` [Example 90, 6-(2-Amino-4-phenyl-1,3-thiazol-5-yl)-2-(2-oxopropyl)-3(2H)-pyridazinone], for which the melting point fell in the range of 216 to 219 °C. To `CC(C)n1nc(-c2sc(NC(=O)c3c(Cl)cccc3Cl)nc2-c2ccccc2)ccc1=O` [Example 49, 2,6-Dichloro-N-[5-(1-isopropyl-6-oxo-1,6-dihydro-3-pyridazinyl)-4-phenyl-1,3-thiazol-2-yl]benzamide] belongs 248 to 249 °C; to `CCn1nc(-c2sc(C(=O)NC(C)C)nc2-c2ccccc2)ccc1=O` [Example 178, 5-(1-ethyl-6-oxo-1,6-dihydro-3-pyridazinyl)-N-isopropyl-4-phenyl-1,3-thiazole-2-carboxamide], 152.5 to 153 °C; to `C=CCn1nc(-c2sc(C(=O)NC(C)C)nc2-c2ccccc2)ccc1=O` [Example 181, 5-(1-allyl-6-oxo-1,6-dihydro-3-pyridazinyl)-N-isopropyl-4-phenyl-1,3-thiazole-2-carboxamide], 166 to 167 °C. `CC(C)n1nc(-c2sc(NC(=N)N)nc2-c2ccccc2)ccc1=O` [Example 63, N-[5-(1-Isopropyl-6-oxo-1,6-dihydro-3-pyridazinyl)-4-phenyl-1,3-thiazol-2-yl]guanidine] yielded a melting point above 250 °C.

Take `CC(C)NC(=O)c1nc(-c2ccccc2)c(-c2ccc(=O)n(Cc3ccccc3)n2)s1` [Example 182, 5-(1-benzyl-6-oxo-1,6-dihydro-3-pyridazinyl)-N-isopropyl-4-phenyl-1,3-thiazole-2-carboxamide]: the melting point lay within 163.5 to 165 °C.

As to `CC(C)n1nc(-c2sc(C(=O)NCc3ccccn3)nc2-c2ccc(F)cc2)ccc1=O` [Example 211, 4-(4-Fluorophenyl)-5-(1-isopropyl-6-oxo-1,6-dihydro-3-pyridazinyl)-N-(2-pyridinylmethyl)-1,3-thiazole-2-carboxamide], the melting point lay within 203.5 to 205 °C. To `CC(C)n1nc(-c2sc(NC(=O)CN3CCCC3)nc2-c2ccccc2)ccc1=O.Cl` belongs above 250 °C. The value for `CC(C)n1nc(-c2sc(NC(=O)c3ccccc3)nc2-c2ccc(F)cc2)ccc1=O` [Example 83, N-[4-(4-Fluorophenyl)-5-(1-isopropyl-6-oxo-1,6-dihydro-3-pyridazinyl)-1,3-thiazol-2-yl]-benzamide] was 202 to 203.5 °C. `CCCNC(=O)c1nc(-c2ccc(F)cc2)c(-c2ccc(=O)n(C(C)C)n2)s1` [Example 175, 4-(4-fluorophenyl)-5-(1-isopropyl-6-oxo-1,6-dihydro-3-pyridazinyl)-N-propyl-1,3-thiazole-2-carboxamide] yielded a melting point of 146.5 to 147.5 °C.

Molecule `CC(C)n1nc(-c2sc(C(=O)NCC(N)=O)nc2-c2ccccc2)ccc1=O` [Example 222, N-(2-amino-2-oxoethyl)-5-(1-isopropyl-6-oxo-1,6-dihydro-3-pyridazinyl)-4-phenyl-1,3-thiazole-2-carboxamide] gave a melting point of 247.5 to 249 °C. To `CC(C)n1nc(-c2sc(C(N)=S)nc2-c2ccccc2)ccc1=O` [Example 240, 5-(1-isopropyl-6-oxo-1,6-dihydro-3-pyridazinyl)-4-phenyl-1,3-thiazole-2-carbothioamide] belongs above 250 °C; to `CC(C)n1nc(-c2sc(NC(=O)c3cccc(Cl)c3)nc2-c2ccccc2)ccc1=O` [Example 35, 3-Chloro-N-[5-(1-isopropyl-6-oxo-1,6-dihydro-3-pyridazinyl)-4-phenyl-1,3-thiazol-2-yl]benzamide], 173 to 174 °C. To `CC(C)n1nc(-c2sc(NC(=O)CNCCN(C)C)nc2-c2ccccc2)ccc1=O.Cl.Cl` belongs 136 to 142 °C.

`CC(C)n1nc(-c2sc(NC(=O)N3CCOCC3)nc2-c2ccccc2)ccc1=O` [Example 32, N-[5-(1-Isopropyl-6-oxo-1,6-dihydro-3-pyridazinyl)-4-phenyl-1,3-thiazol-2-yl]-4-morpholinecarboxamide] showed a melting point of 231 to 232 °C. To `CC(C)n1nc(-c2sc(C(=O)NCCN3CCOCC3)nc2-c2ccccc2)ccc1=O` [Example 224, 5-(1-Isopropyl-6-oxo-1,6-dihydro-3-pyridazinyl)-N-[2-(4-morpholinyl)-ethyl]-4-phenyl-1,3-thiazole-2-carboxamide] belongs 196.5 to 197.5 °C. In turn, `CC(C)n1nc(-c2sc(NCCN3CCCCC3)nc2-c2ccccc2)ccc1=O` [Example 74, 2-Isopropyl-6-(4-phenyl-2-{[2-(1-piperidinyl)ethyl]amino}-1,3-thiazol-5-yl)-3(2H)-pyridazinone] displayed a melting point of 165 to 166 °C. To `CC(C)n1nc(-c2sc(NC(=O)CNCCCO)nc2-c2ccccc2)ccc1=O.Cl` belongs 136 to 142 °C; to `CNC(=O)c1nc(-c2ccccc2)c(-c2ccc(=O)n(C(C)C)n2)s1` [Example 212, 5-(1-isopropyl-6-oxo-1,6-dihydro-3-pyridazinyl)-N-methyl-4-phenyl-1,3-thiazole-2-carboxamide], 165 to 167.5 °C; to `CC(C)n1nc(-c2sc(NC(=O)NCc3ccccc3)nc2-c2ccccc2)ccc1=O` [Example 11, N-benzyl-N′-[5-(1-isopropyl-6-oxo-1,6-dihydro-3-pyridazinyl)-4-phenyl-1,3-thiazol-2-yl]urea], 200 to 201 °C.

Turning to `CC(C)n1nc(-c2sc(NC(=O)c3ccc(CN4CCN(C)CC4)cc3)nc2-c2ccccc2)ccc1=O` [Example 97, N-(5-(1-Isopropyl-6-oxo-1,6-dihydro-3-pyridazinyl)-4-phenyl-1,3-thiazol-2-yl]-4-[(4-methyl-1-piperazinyl)methyl]benzamide], the melting point lay in the range of 224 to 227 °C. The value for `CC(C)n1nc(-c2sc(NC(=O)CNCCO)nc2-c2ccccc2)ccc1=O` [Example 117, 2-[(2-Hydroxyethyl)amino]-N-[5-(1-isopropyl-6-oxo-1,6-dihydro-3-pyridazinyl)-4-phenyl-1,3-thiazol-2-yl]acetamide] was 142 to 144 °C. `COCCn1nc(-c2sc(N)nc2-c2ccccc2)ccc1=O` [Example 87, 6-(2-Amino-4-phenyl-1,3-thiazol-5-yl)-2-(2-methoxyethyl)-3(2H)-pyridazinone] registered a melting point of 208 to 209.5 °C. To `CC(C)n1nc(-c2sc(NC(=O)N3CCCCC3)nc2-c2ccccc2)ccc1=O` [Example 52, N-[5-(1-Isopropyl-6-oxo-1,6-dihydro-3-pyridazinyl)-4-phenyl-1,3-thiazol-2-yl]-1-piperidinecarboxamide] belongs 138 to 140 °C; to `CC(C)n1nc(-c2sc(C(=O)NC3CC3)nc2-c2cccc(F)c2)ccc1=O` [Example 197, N-cyclopropyl-4-(3-fluorophenyl)-5-(1-isopropyl-6-oxo-1,6-dihydro-3-pyridazinyl)-1,3-thiazole-2-carboxamide], 145.5 to 147 °C. Regarding `CC(C)n1nc(-c2sc(C(N)=O)nc2-c2cccc(Cl)c2)ccc1=O` [Example 166, 4-(3-Chlorophenyl)-5-(1-isopropyl-6-oxo-1,6-dihydro-3-pyridazinyl)-1,3-thiazole-2-carboxamide], the melting point lay in the range of 232 to 234.5 °C. `CC(C)n1nc(-c2sc(N)nc2-c2cccc(F)c2)ccc1=O` [Example 80, 6-[2-Amino-4-(3-fluorophenyl)-1,3-thiazol-5-yl]-2-isopropyl-3(2H)-pyridazinone] gave a melting point of 237 to 238 °C. To `CC(C)n1nc(-c2sc(NC(=O)c3ccc(CCl)cc3)nc2-c2ccccc2)ccc1=O` [Example 56, 4-(Chloromethyl)-N-[5-(1-isopropyl-6-oxo-1,6-dihydro-3-pyridazinyl)-4-phenyl-1,3-thiazol-2-yl]benzamide] belongs above 250 °C; to `CC(C)n1nc(-c2sc(NC(C)(C)C)nc2-c2ccccc2)ccc1=O` [Example 61, 6-[2-(tert-Butylamino)-4-phenyl-1,3-thiazol-5-yl]-2-isopropyl-3(2H)-pyridazinone], 189 to 190 °C; to `CC(C)n1nc(-c2sc(Nc3cccc4ccccc34)nc2-c2ccccc2)ccc1=O` [Example 72, 2-Isopropyl-6-[2-(1-naphthylamino)-4-phenyl-1,3-thiazol-5-yl]-3(2H)-pyridazinone], 239 to 240 °C. `CC(C)n1nc(-c2sc(C(=O)NC3CC3)nc2-c2ccccc2)ccc1=O` [Example 192, N-cyclopropyl-5-(1-isopropyl-6-oxo-1,6-dihydro-3-pyridazinyl)-4-phenyl-1,3-thiazole-2-carboxamide] showed a melting point of 127 to 128 °C.

For the origin of these results see patent US20050004134A1, “Thiazole derivative and pharmaceutical use thereof” (priority 2001, published 2005).
